ChEMBL document CHEMBL3797052 (Eur J Med Chem, 2016)

System: T47D
Assay: Antiproliferative activity against human T47D cells assessed as cell growth at 10^-8 M after 48 hrs by sulforhodamine B assay
Type: functional
Settings: read-out: Activity

Compound | growth at 0.01 µM
CNC(=O)c1cc(Oc2ccc3nc(NC(=O)c4cc(C(F)(F)F)cc(C(F)(F)F)c4)sc3c2)ccn1 | 97%

System: CCRF-CEM
Assay: Antiproliferative activity against human CCRF-CEM cells assessed as cell growth at 10^-7 M after 48 hrs by sulforhodamine B assay
Type: functional
Settings: read-out: Activity

Compound | growth at 0.1 µM
CNC(=O)c1cc(Oc2ccc3nc(NC(=O)c4cc(C(F)(F)F)cc(C(F)(F)F)c4)sc3c2)ccn1 | 108%

System: SR
Assay: Antiproliferative activity against human SR cells assessed as cell growth at 10^-7 M after 48 hrs by sulforhodamine B assay
Type: functional
Settings: read-out: Activity

Compound | growth at 0.1 µM
CNC(=O)c1cc(Oc2ccc3nc(NC(=O)c4cc(C(F)(F)F)cc(C(F)(F)F)c4)sc3c2)ccn1 | 89%

System: NCI-H522
Assay: Antiproliferative activity against human NCI-H522 cells assessed as cell growth at 10^-7 M after 48 hrs by sulforhodamine B assay
Type: functional
Settings: NCI-H522, 48 h, read-out: Activity

Compound | growth at 0.1 µM
CNC(=O)c1cc(Oc2ccc3nc(NC(=O)c4cc(C(F)(F)F)cc(C(F)(F)F)c4)sc3c2)ccn1 | 109%

System: not listed separately
Assay: Antiproliferative activity against human COLO205 cells assessed as cell growth at 10^-7 M after 48 hrs by sulforhodamine B assay
Type: functional
Settings: COLO 205, 48 h, read-out: Activity

Compound | growth at 0.1 µM
CNC(=O)c1cc(Oc2ccc3nc(NC(=O)c4cc(C(F)(F)F)cc(C(F)(F)F)c4)sc3c2)ccn1 | 91%

System: not listed separately
Assay: Antiproliferative activity against human HCT116 cells assessed as cell growth at 10^-7 M after 48 hrs by sulforhodamine B assay
Type: functional
Settings: HCT-116, 48 h, read-out: Activity

Compound | growth at 0.1 µM
CNC(=O)c1cc(Oc2ccc3nc(NC(=O)c4cc(C(F)(F)F)cc(C(F)(F)F)c4)sc3c2)ccn1 | 104%

System: not listed separately
Assay: Antiproliferative activity against human SF268 cells assessed as cell growth at 10^-7 M after 48 hrs by sulforhodamine B assay
Type: functional
Settings: SF-268, 48 h, read-out: Activity

Compound | growth at 0.1 µM
CNC(=O)c1cc(Oc2ccc3nc(NC(=O)c4cc(C(F)(F)F)cc(C(F)(F)F)c4)sc3c2)ccn1 | 97%

System: not listed separately
Assay: Antiproliferative activity against human SNB19 cells assessed as cell growth at 10^-7 M after 48 hrs by sulforhodamine B assay
Type: functional
Settings: SNB-19, 48 h, read-out: Activity

Compound | growth at 0.1 µM
CNC(=O)c1cc(Oc2ccc3nc(NC(=O)c4cc(C(F)(F)F)cc(C(F)(F)F)c4)sc3c2)ccn1 | 103%

System: SK-MEL-2
Assay: Antiproliferative activity against human SK-MEL-2 cells assessed as growth inhibition after 48 hrs by sulforhodamine B assay
Type: functional
Settings: SK-MEL-2, 48 h

Compound | GI50 | TGI
CNC(=O)c1cc(Oc2ccc3nc(NC(=O)c4cc(C(F)(F)F)cc(C(F)(F)F)c4)sc3c2)ccn1 | 2.32 µM | 6.7 µM

Same assay, conditions: SK-MEL-2, 48 h, read-out: LC50 (the source's name)

Compound | CC50
CNC(=O)c1cc(Oc2ccc3nc(NC(=O)c4cc(C(F)(F)F)cc(C(F)(F)F)c4)sc3c2)ccn1 | 81.6 µM

System: not listed separately
Assay: Antiproliferative activity against human LOXIMVI cells assessed as growth inhibition after 48 hrs by sulforhodamine B assay
Type: functional
Settings: LOX IMVI

Compound | GI50 | TGI
CNC(=O)c1cc(Oc2ccc3nc(NC(=O)c4cc(C(F)(F)F)cc(C(F)(F)F)c4)sc3c2)ccn1 | 3.39 µM | 15.1 µM

Same assay, conditions: LOX IMVI, read-out: LC50 (the source's name)

Compound | CC50
CNC(=O)c1cc(Oc2ccc3nc(NC(=O)c4cc(C(F)(F)F)cc(C(F)(F)F)c4)sc3c2)ccn1 | 97.5 µM

System: not listed separately
Assay: Antiproliferative activity against human UO31 cells assessed as cell growth at 10^-7 M after 48 hrs by sulforhodamine B assay
Type: functional
Settings: UO-31, 48 h, read-out: Activity

Compound | growth at 0.1 µM
CNC(=O)c1cc(Oc2ccc3nc(NC(=O)c4cc(C(F)(F)F)cc(C(F)(F)F)c4)sc3c2)ccn1 | 86%

System: MDA-MB-231
Assay: Antiproliferative activity against human MDA-MB-231 cells assessed as cell growth at 10^-7 M after 48 hrs by sulforhodamine B assay
Type: functional
Settings: MDA-MB-231, 48 h, read-out: Activity

Compound | growth at 0.1 µM
CNC(=O)c1cc(Oc2ccc3nc(NC(=O)c4cc(C(F)(F)F)cc(C(F)(F)F)c4)sc3c2)ccn1 | 107%

System: not listed separately
Assay: Antiproliferative activity against human SF268 cells assessed as growth inhibition after 48 hrs by sulforhodamine B assay
Type: functional
Settings: SF-268, 48 h

Compound | GI50 | LC50 (concentration killing 50% of cells) | TGI
CNC(=O)c1cc(Oc2ccc3nc(NC(=O)c4cc(C(F)(F)F)cc(C(F)(F)F)c4)sc3c2)ccn1 | 2.66 µM | > 100 µM | 17 µM

System: EKVX
Assay: Antiproliferative activity against human EKVX cells assessed as growth inhibition after 48 hrs by sulforhodamine B assay
Type: functional
Settings: not given

Compound | GI50 | TGI
CNC(=O)c1cc(Oc2ccc3nc(NC(=O)c4cc(C(F)(F)F)cc(C(F)(F)F)c4)sc3c2)ccn1 | 3.43 µM | 23.3 µM

Same assay, conditions: read-out: LC50 (the source's name)

Compound | CC50
CNC(=O)c1cc(Oc2ccc3nc(NC(=O)c4cc(C(F)(F)F)cc(C(F)(F)F)c4)sc3c2)ccn1 | > 100 µM

System: T47D
Assay: Antiproliferative activity against human T47D cells assessed as growth inhibition after 48 hrs by sulforhodamine B assay
Type: functional
Settings: not given

Compound | GI50
CNC(=O)c1cc(Oc2ccc3nc(NC(=O)c4cc(C(F)(F)F)cc(C(F)(F)F)c4)sc3c2)ccn1 | 3.04 µM
